According to US20060111288A1, “Peripheral benzodiazepine receptor independent superoxide generation” (priority 2004, published 2006):

Legend:
DoHH2 cells = assay: Apoptosis induction in the presence and absence of the ROS scavenger MnTBAP; assay type: cell-based; details: 24, 48, 72 hr, 1000 micromolar MPTP, 100 micromolar PK11195, 50 micromolar HA14-1, FIG. 5
Procedure: DoHH2 cells, a lymphoma cell line, were treated with MPTP, PK11195 and HA14-1 in the presence and absence of MnTBAP, a scavenger of ROS. […] MnTBAP inhibited MPTP-induced and PK11195-induced apoptosis, but not apoptosis induced by HA14-1. The three columns in each lane represent three time courses (L to R: 24 hr, 48 hr and 72 hr). […] The induction of apoptosis at the same time points as a result of treatment with 1000 micromolar MPTP is shown in lane “1000”.
The blockade of MPTP induction of apoptosis by MnTBAP parallels that of PK11195.
DoHH2 cells, a lymphoma cell line with high levels of the […] protein Bcl-2 due to a translocation between chromosome 14 and 18 (where the Bcl-2 gene is located), were exposed to MPTP, PK11195 and HA 14-1 in the presence and absence of the mitochondrial ROS scavenger, MnTBAP.

BV173 leukaemia cells = assay: Hydrogen peroxide generation (CMH2DCF fluorescence) in PBR-positive cells; assay type: cell-based; details: PBR expressed, FIG. 3
Procedure: (§1) HL60 promyelocytic leukaemia, Jurkat T cell leukaemia cells lacking the PBR,(18) (19) (kindly provided by Dr D. E. Banker and Dr F. Applebaum, The Fred Hutchinson Cancer Research Center, USA), and BV173 leukaemia cells were maintained in exponential suspension cultures in PPMI 1640 medium supplemented with 10% fetal calf serum, 5 mM glutamine, 100 μg/ml streptomycin and 100 U/ml penicillin. Cells were grown in a humidified atmosphere of 5% CO2/95% air at 37° C. PK11195 was dissolved in ethanol at a stock concentration of 8.7 mg/ml, and added to cells at a 75 μM final concentration for 4 hours; vehicle alone was also used in medium. O2^−· was detected by incubating cells for 15 minutes in 5 μM dihydroethidium, which is oxidized to ethidium. […] Hydrogen peroxide was detected by loading cells for 30 minutes with 5 μM CM-H2DCFDA, and its formation inhibited by preincubation with 500 U/ml catalase for 30 minutes (21). Dose-response curves for CM-H2DCFDA used the calculated proportion of CM-H2DCFDA high cells as the dependent variable.

HL60 leukaemia cells [1] = assay: Mitochondrial membrane potential depolarisation (DiOC6(3) fluorescence, flow cytometry); assay type: cell-based, human
Procedure: HL60 promyelocytic leukaemia, Jurkat T cell leukaemia cells lacking the PBR,(18) (19) (kindly provided by Dr D. E. Banker and Dr F. Applebaum, The Fred Hutchinson Cancer Research Center, USA), and BV173 leukaemia cells were maintained in exponential suspension cultures in PPMI 1640 medium supplemented with 10% fetal calf serum, 5 mM glutamine, 100 μg/ml streptomycin and 100 U/ml penicillin. Cells were grown in a humidified atmosphere of 5% CO2/95% air at 37° C. PK11195 was dissolved in ethanol at a stock concentration of 8.7 mg/ml, and added to cells at a 75 μM final concentration for 4 hours; vehicle alone was also used in medium.
(§2) A Becton Dickinson FACScan (Oxford) was used to acquire 10,000 events using forward and scatter detectors with logarithmic amplification. Lymphoid enriched gates were defined. Corresponding DiOC6(3) or CMH2DCFDA fluorescence was analysed using the FL1 (530 nm) band pass filter. Propidium iodide or ethidium fluorescence were analysed using the FL3 (620 nm) band pass filter. List mode Data was analysed using WINMDI 2.8. Fluorescence microscopy was performed using a Zeiss Axioskop four colour florescence microscope with digital capture via a computer running IPLab Spectrum software.
(§3) Cells were incubated for 20 minutes at 37° C. in the dark with the cationic lipophillic (amphipathic) probe DiOC6(3) (80 nM), then counter stained for 10 minutes with propidium iodide (20 μg/ml). DiOC6(3) is sequestered within the mitochondrial matrix due to the inner membrane potential (ΔΨm), according to the Nernst equation, dissipation leading to a reduction in mitochondrial retention and decreased cellular DiOC6(3) fluorescence. Collapse of ΔΨm was prevented by incubating cells for 30 minutes with 50 μM bongkrekic acid. Events with increased propidium iodide fluorescence were subtracted, by gating, from the DiOC6(3) histograms to eliminate dead cells, with loss of plasma membrane integrity. Dose-response curves used the calculating the proportion of DiOC6(3) low cells as the dependent variable on the ordinate. To measure MPT directly, cells were incubated with 1 μM calcein AM for 30 minutes, followed by 1 mM […]. Cobalt quenches calcein fluorescence, but cannot traverse an intact inner mitochondrial membrane to enter the mitochondrial matrix, to which calcein equilibrates. Opening of the PTPC allows cobalt to enter, reducing calcein fluorescence.

HL60 leukaemia cells [2] = assay: Direct measurement of MPT by calcein/cobalt quenching; assay type: cell-based, human; details: calcein AM plus cobalt, FIG. 1D/1E
Procedure: as §3

[3] = tested on: peripheral benzodiazepine receptor (PBR); details: references 1, 2; cited from earlier work
[4] = tested on: primary chronic lymphatic leukaemia cells; assay: Apoptosis induction in primary leukaemia cells; assay type: cell-based; details: primary chronic lymphatic leukaemia cells (higher NADPH oxidase than normal cells)
HL60 cells = assay: Hydrogen peroxide generation (CMH2DCF fluorescence); assay type: cell-based, human
Procedure: as §2
(§4) O2^−· was detected by incubating cells for 15 minutes in 5 μM dihydroethidium, which is oxidized to ethidium. To test the effect of O2^−· […] on O2^−· generation, cells were treated with 100 μM MnTBAP for 45 minutes. Hydrogen peroxide was detected by loading cells for 30 minutes with 5 μM CM-H2DCFDA, and its formation inhibited by preincubation with 500 U/ml catalase for 30 minutes (21). Dose-response curves for CM-H2DCFDA used the calculated proportion of CM-H2DCFDA high cells as the dependent variable.

[5] = tested on: normal, non-malignant lymphocytes; assay: Apoptosis induction in normal lymphocytes; assay type: cell-based
leukaemia cells = assay: Superoxide generation (dihydroethidium to ethidium fluorescence); assay type: cell-based
Procedure: as §2, §4

[6] = tested on: Jurkat T cell leukaemia cells; assay: Hydrogen peroxide generation (CMH2DCF fluorescence) in PBR-negative cells; assay type: cell-based; details: PBR not expressed, FIG. 3
Procedure: as §1

CCOC(=O)C1=C(N)Oc2ccc(Br)cc2C1C(C#N)C(=O)OCC (centres unmarked) [HA14-1]
effect of MnTBAP on apoptosis induced by the compound (DoHH2 cells): not blocked

CN1CC=C(c2ccccc2)CC1 [MPTP, 1-methyl-4-phenyl-1,2,3,6-tefrahydropyridine]
effect of MnTBAP on apoptosis induced by the compound (DoHH2 cells): inhibited

CCC(C)N(C)C(=O)c1cc2ccccc2c(-c2ccccc2Cl)n1 (centres unmarked) [PK11195, 1-(2-chlorophenyl)-N-methyl-N-methyl-N-(1-methylpropyl)-isoquinoline carboxamide]
CMH2DCF fluorescence (generation of H202) (BV173 leukaemia cells): increase in CMH2DCF fluorescence | time until reduction in DiOC6(3) fluorescence is detectable (HL60 leukaemia cells [1]; PK11195 treated): ≤ 3 h | DiOC6(3) fluorescence (collapse of mitochondrial ΔΨm) (HL60 leukaemia cells [1]; PK11195 treated vs control, FIG. 1A/1B): reduction in DiOC6(3) fluorescence | mitochondrial calcein fluorescence (MPT, open PTPCs) (HL60 leukaemia cells [2]): quenched | binding affinity to the PBR [3]: nanomolar | induction of apoptosis [4]: induces apoptosis | concentration range in which CMH2DCF fluorescence increased (HL60 cells; HL60 cells, concentration dependent, FIG. 2A): 50 to 100 µM | induction of apoptosis [5]: does not do so | ethidium fluorescence (O2−· generation) (leukaemia cells; following PK11195 treatment vs control, FIG. 4A): early increase in ethidium fluorescence | CMH2DCF fluorescence (generation of H202) [6]: increase in CMH2DCF fluorescence | effect of MnTBAP on apoptosis induced by the compound (DoHH2 cells): inhibited

O=C(O)c1ccc(C2=C3C=CC(=N3)C(c3ccc(C(=O)O)cc3)=c3ccc([nH]3)=C(c3ccc(C(=O)O)cc3)c3ccc([n-]3)C(c3ccc(C(=O)O)cc3)c3ccc2[n-]3)cc1.[Cl-].[Mn+3] (centres unmarked) [MnTBAP, Manganese (III) tetrakis (4-benzoic acid) porphyrin chloride]
effect on rate of PK11195 induced mitochondrial depolarisation (rate of reduction of DiOC6(3) fluorescence) (HL60 leukaemia cells [1]; presence vs absence of MnTBAP, FIG. 4C): Reduction in the rate of inner mitochondrial membrane depolarisation | effect on PK11195 induced increase in ethidium fluorescence (leukaemia cells; 100 μM MnTBAP, FIG. 4B): inhibited

catalase
effect on PK11195 induced increase in CMH2DCF fluorescence (HL60 cells; HL60 cells preincubated with catalase 500 U/ml, FIG. 2B): inhibited

CO[C@H](C/C=C\C=C\CC/C=C/C[C@H](C)/C=C/C(=C\C(=O)O)CC(=O)O)/C(C)=C\C=C(/C)C(=O)O [BA, Bongkrekic acid]
effect of inhibitor on PK11195 mediated mitochondrial depolarisation (HL60 leukaemia cells [1]; pre-treatment with 50 μM bongkrekic acid for 30 minutes, FIG. 1C): prevented
